Tests used:
[1] = system: HuTu 80 cells; test: Mitochondrial membrane potential, JC-10 flow cytometry; type: cell-based, human; conditions: HuTu 80, 48-h treatment
Description: The cells are prepared as in the Cell Apoptosis Assay section. Cells were detached with trypsin/versene solution (1:3), suspended in PBS, collected at 2000 rpm for 5 min, then washed twice with ice-cold PBS, followed by resuspension in JC-10 (10 μg/mL) and incubation at 37 °C for 10 min. The cells were then washed three times and suspended in PBS, and JC-10 fluorescence was observed by flow cytometry (Guava Easy Cyte).
Most forms of apoptosis in mammals are realized not through cell death receptors but through the mitochondrial pathway. In this case, the outer membrane of the mitochondria breaks, and soluble proteins of the intermembrane space enter the cytoplasm. The permeability of the outer membrane of mitochondria is a finely regulated process, and its increase is a key event in triggering apoptosis. Induction of apoptosis by compounds 4b, 5b, 6a, and 8 at concentrations of IC50/2 and IC50 via the mitochondrial pathway on the HuTu 80 cell line was studied by flow cytometry using the fluorescent dye JC-10 from the Mitochondria Membrane Potential Kit.

[2] = system: HuTu 80 cells; test: Intracellular ROS, CellROX Deep Red flow cytometry; type: cell-based, human; conditions: HuTu 80, IC50/2 and IC50, compared with the control
Description: ROS generation was investigated using a flow cytometry assay and the CellROX® Deep Red flow cytometry kit. For this, HuTu 80 cells were harvested at 2000 rpm for 5 min and then washed twice with ice-cold PBS, followed by resuspension in 0.1 mL of medium without FBS, to which was added 0.2 μL of CellROX® Deep Red and incubated at 37 °C for 30 min. After three washes, cells were suspended in PBS, and the cell production of ROS was immediately monitored using a flow cytometer (Guava easy Cyte).

[3] = system: HuTu 80 cells; test: Cell cycle analysis, propidium iodide flow cytometry; type: cell-based, human; conditions: HuTu 80, IC50, 48 h, compared with the control
Description: The DNA content and cell-cycle distribution after compounds 4b, 5b, 6a, and 8 IC50 concentrations were estimated by flow cytometry. After washing with PBS, treated cells were suspended in 150 μL of PBS, then 0.5 mL of phosphate-citrate buffer (0.05 M, pH 4.0) was added, and the suspension was incubated at room temperature for 5 min to facilitate the extraction of low-molecular-weight DNA. Following centrifugation, the cells were resuspended in 150 μL DNA staining solution (20 μg/mL propidium iodide, 200 μg/mL […]) and incubated in the CO2 incubator (37 °C for 30 min). The distribution of the cell cycle was determined by fluorescence analysis of HuTu 80 cells stained with propidium iodide using Guava easyCyte (Guava easyCyte).

[4] = system: human volunteer donor erythrocytes; test: Hemolytic assay; type: cell-based; conditions: hemolysis in 50% of human erythrocytes, 1 h, 37 °C
Description: The hemolytic activity of Aminophosphonium Salts was assessed by comparing the optical density of a solution containing the test compound with the optical density of blood at 100% hemolysis. Healthy human volunteer donor erythrocytes were used as the object of the study. Red blood cells with EDTA (1.8 mg/mL) were washed three times with saline (0.9% NaCl), centrifuged for 10 min at 800× g rpm, and resuspended in saline (0.9% NaCl) to a concentration of 10%. The tested concentrations (0.1–100 μM) were prepared in physiological solution (0.9% NaCl) (with the addition of 5% DMSO). Compounds at the appropriate dilution (450 μL) were added to 50 μL of a 10% red blood cell suspension. Samples were incubated for 1 h at 37 °C and centrifuged for 10 min at 2000 rpm. The release of hemoglobin was controlled by measuring the optical density of the supernatant on an InvitroLogic microplate reader at λ = 540 nm. A control sample corresponding to zero hemolysis (blank experiment) was prepared by adding 50 μL of a 10% red blood cell suspension to 450 μL of saline (0.9% NaCl). A control sample corresponding to 100% hemolysis was prepared by adding 50 μL of a 10% red blood cell suspension to 450 μL of distilled water. Blood was taken at the Clinic of the Federal Research Center “Kazan Scientific Center of the Russian Academy of Sciences” from healthy donors with their personal consent.

[5] = In vivo acute toxicity, single intraperitoneal injection; set-up: species or system mice; conditions: male, CD-1, mouse, in vivo, ip, male CD-1 mice, single intraperitoneal administration, 14 days, Probit analysis
Description: (§1) The study of acute toxicity was performed on males of outbred white mice of the CD-1 line at the age of 2–3 months, weighing 20–30 g. The total number of mice participating in the experiment was 300. Mice were obtained from the Research and Production Enterprise Laboratory Animal Farm based at the Branch of Shemyakin and Ovchinnikov Institute of Bioorganic Chemistry of the Russian Academy of Sciences (Pushchino, Russia). The animals were kept in accordance with in standard conditions in a vivarium with 12 h of daylight and free access to food and water. The animals were fed complete feed made according to specifications (protein 22%, fiber 4% max., fat 5% max, ash 9% max, humidity 13.5% max, caloric value 295 kcal/100 g). The studies were conducted with a single parenteral–intraperitoneal (intra-peritoneal) injection, according to the method.
(§2) The substances were introduced in a sterile saline DMSO (40% vol.) solution. Solutions of the substances were prepared immediately before administration. The total volume of the injected liquid was 0.1 mL/10 g of animal weight. As a control, a group of mice was administered under similar conditions an equivalent amount (0.1 mL/10 g, or 10 mL/kg) of a solvent—40% DMSO on sterile saline solution. The substances were administered in doses ranging from 1 to 100 mg/kg; there were six animals in each group. To assess acute toxicity, the animals were monitored 14 days after administration of the substance, assessing their general condition and recording deaths.
(§3) The study of the acute toxicity parameters of six aminophosphonium salts 4a, 4b, 4d, 5a, 5b, and 6b was performed on male outbreed white mice of the CD-1 line. Acute toxicity was determined with a single parenteral (intraperitoneal) administration in sterile saline/DMSO (40% vol.) solution at doses from 1 to 100 mg/kg. To assess acute toxicity, the animals were monitored for 14 days after the introduction of substances, assessing their general condition and recording deaths. Next, lethal doses LD50, LD0, LD16, LD84, and LD100 were calculated using the Probit analysis method. LD0, LD16, LD84, and LD100 are given in Supplementary Material (Table S1).

[6] = system: mice of the CD-1 line; test: as above; conditions: for onset of animal death after administration: doses of LD100; for acute toxicity class: according to the classification [105], parenteral administration
Description: as §1, §2, §3

[7] = system: PC3; test: cells; conditions: Homo sapiens, PC-3, 48 h, read-out: Cytotoxic Effects (IC50), PC3, MTT assay, 48 h

Row | SMILES | effect on mitochondrial membrane potential (in words) [1] | ROS production, CellROX Deep Red fluorescence (in words) [2] | effect on cell cycle (in words) [3] | HC50 [4] | LD50 at 14 days [5] | onset of animal death after administration ([6]; CD-1 mice, i.p.) | acute toxicity class [6] | IC50 [7] | LD50 ([6]; male CD-1 mice, single intraperitoneal administration, 14 days, Probit analysis) | death in animals ([6]; CD-1 mice, i.p., dose of 150 mg/kg) | time to death ([6]; CD-1 mice, i.p., doses of 200 and 400 mg/kg)
1 | CCCCCCCC[P+](N(CC)CC)(N(CC)CC)N(CC)CC [4b, Tris(diethylamino)(octyl)phosphonium iodide] | decrease in the mitochondrial membrane potential | increase in the fluorescence intensity | significant delay of cells in the G0/G1 phase | >100 µM | 43.4 mg/kg | 1 to 2 h | moderately toxic | 11.6 ± 0.9 µM |  |  | 
2 | CCCCCCCCCC[P+](N(CC)CC)(N(CC)CC)N(CC)CC [4d, Decyltris(diethylamino)phosphonium iodide] |  |  |  |  | 6.9 mg/kg | 1 to 2 h | highly toxic | 7.3 ± 0.6 µM | 5.9 (3.7÷7.6) mg/kg |  | 
3 | CCCCCCCC[P+](c1ccccc1)(N(CC)CC)N(CC)CC [5b, Bis(diethylamino)(octyl)(phenyl)phosphonium iodide] | decrease in the mitochondrial membrane potential | increase in the fluorescence intensity | significant delay of cells in the G0/G1 phase | >100 µM | 27.9 mg/kg | 1 to 2 h | moderately toxic | 11.4 ± 0.9 µM |  |  | 
4 | CCCCCC[P+](c1ccccc1)(c1ccccc1)N(CC)CC [6a, (Diethylamino)(hexyl)diphenylphosphonium iodide] | decrease in the mitochondrial membrane potential | increase in the fluorescence intensity | slight change in the cell cycle | > 100 µM |  |  |  | 4 ± 0.3 µM |  |  | 
5 | CCCCCCCC[P+](c1ccccc1)(c1ccccc1)N(CC)CC [6b, (Diethylamino)(octyl)diphenylphosphonium iodide] |  |  |  | >100 µM | 102 mg/kg |  | moderately toxic |  |  | 100% | ≤ 10 min
6 | CCCCCCCC[P+](c1ccccc1)(c1ccccc1)c1ccccc1 [compound 8, Octyltriphenylphosphonium iodide, reference compound] | decrease in the mitochondrial membrane potential | increase in the fluorescence intensity | significant delay of cells in the G0/G1 phase |  |  |  |  | 0.4 ± 0.03 µM |  |  | 

Source: publication PMC10649961, “Novel Mitochondria-Targeted Amphiphilic Aminophosphonium Salts and Lipids Nanoparticles: Synthesis, Antitumor Activity and Toxicity” (Nanomaterials, 2023)
